Measured values taken from patent US3940248A, “Method for inhibiting corrosion of metal” (Otsuka Kagaku Yakuhin Kabushiki Kaisha, priority 1972, dated 1976).

How the values were obtained:
in vivo = conditions: rat, po
Protocol: The LD50 test was conducted using male Wistar rats after 24 hours' fasting weighing 150 g, each 10 rats as a group.

male Wistar rats = conditions: sodium nitrite, as determined in rats; cited from earlier work

| Compound | LD50 (in vivo) | LD50 (male Wistar rats) |
| --- | --- | --- |
| Cc1cc(O)c2nncn2n1 | ~3750 mg/kg | – |
| O=NO [Sodium nitrite] | – | 85 mg/kg |
